For the assay, the system named is blood glucose level. Description: Hypoglycemic activity in obese diabetic mice (Table 1). Format: in vivo, male viable yellow obese-diabetic mice. The settings on record: for ability to lower blood glucose levels in mammals: compared to structurally similar compounds known in the art, in words; for response vs control in vivo at 50 mg/kg / response vs control in vivo at 100 mg/kg: Mus musculus, ip. As to the method:
The hypoglycemic activity of the compounds of the present invention was determined by testing the efficacy of the compounds in vivo in male viable yellow obese-diabetic mice. The test procedure is described in detail below.
Test formulations were prepared by dissolving the test compound in a saline solution containing 2% Emulphor (a polyoxyethylated vegetable oil surfactant from GAP Corp.) to provide the dose level desired. Each test formulation was administered to six viable yellow obese-diabetic mice intraperitoneally at the beginning of the experiment. Blood glucose levels were determined immediately before the first dose and at 2 and 4 hours thereafter using glucose oxidase. A mean was taken of the 6 values obtained before the first dose and at the 2 and 4 hour intervals. In Table 1, Column 1 provides the example number of the test compound, Column 2 provides the dose level of compound tested, and Columns 3 and 4 provide a measurement of the test animal's blood glucose level 2 and 4 hours after test compound administration, respectively, as a percentage of the test animal' s pre-administration blood glucose level.

Setting [1] is: 2 h, 50 mg/kg, intraperitoneal, 2 hrs, read-out: Percent of Initial Blood Glucose Level After 2 hrs.
The mark [2] stands for this setting: 4 h, 50 mg/kg, intraperitoneal, 4 hrs, read-out: Percent of Initial Blood Glucose Level After 4 hrs.
The mark [3] stands for this setting: 50 mg/kg, intraperitoneal, 2 hrs.
Where [4] appears, read: 50 mg/kg, intraperitoneal, 4 hrs.

Molecules are shown by their SMILES. Where a name gives a salt, the structure may show the parent alone. Read-outs that look alike come from different tables or passages of the source.

Take `CCCCOc1ccc(C=C2SC(=S)NC2=O)cc1` [5-[(4-butoxyphenyl)methylene]-2-thioxo-4-thiazolidinone]: the “ability to lower blood glucose levels in mammals” value was “surprising ability to lower blood glucose levels in mammals”.

Regarding `O=C1NC(=S)SC1=Cc1ccc2c(c1)OCO2` [Example 2, 5-[(1,3-benzodioxol-5-yl)methylene]-2-thioxo-4-thiazolidinone], the response vs control in vivo at 50 mg/kg under setting [1] worked out at 96 ± 1% and the response vs control in vivo at 50 mg/kg under setting [2] amounted to 82 ± 3%.

As to `O=C1NC(=S)SC1=Cc1ccnc2ccccc12` [Example 3, 5-[(4-quinolinyl)methylene]-2-thioxo-4-thiazolidinone], the response vs control in vivo at 50 mg/kg was found to be 90 ± 10% under setting [1] and 73 ± 3% under setting [2].

For the compound `O=C1NC(=S)SC1=Cc1ccccc1O` [Example 7, 5-[(2-hydroxyphenyl)methylene]-2-thioxo-4-thiazolidinone], the response vs control in vivo at 50 mg/kg reads like this: under setting [1], 80 ± 4%; under setting [2], 91 ± 7%.

In the case of `O=C1NC(=S)SC1=Cc1ccccc1[N+](=O)[O-]` [Example 9, 5-[(2-nitrophenyl)methylene]-2-thioxo-4-thiazolidinone], the response vs control in vivo at 50 mg/kg was determined as 91 ± 8% under setting [1] and 83 ± 6% under setting [2].

With `O=C1NC(=S)SC1=Cc1cccc([N+](=O)[O-])c1` [Example 10, 5-[(3-nitrophenyl)methylene]-2-thioxo-4-thiazolidinone], the response vs control in vivo at 50 mg/kg under setting [1] came out at 89 ± 4% and the response vs control in vivo at 50 mg/kg under setting [2] was found to be 80 ± 4%.

On to `O=C1NC(=S)SC1=Cc1cccc(O)c1` [Example 11, 5-[(3-hydroxyphenyl)methylene]-2-thioxo-4-thiazolidinone], for which the response vs control in vivo at 50 mg/kg by setting is: under setting [1], 84 ± 3%; under setting [2], 85 ± 6%.

In the case of `COc1ccc(C=C2SC(=S)NC2=O)c(OC)c1` [Example 12, 5-[(2,4-dimethoxyphenyl)methylene]-2-thioxo-4-thiazolidinone], the response vs control in vivo at 50 mg/kg reads like this: under setting [1], 90 ± 7%; under setting [2], 69 ± 6%.

On to `O=C1NC(=S)SC1=Cc1ccc(F)cc1` [Example 13, 5-[(4-fluorophenyl)methylene]-2-thioxo-4-thiazolidinone], for which the response vs control in vivo at 50 mg/kg runs as follows: under setting [1], 94 ± 4%; under setting [2], 88 ± 5%.

With `O=C1NC(=S)SC1=Cc1cccs1` [Example 14, 5-[(2-thienyl)methylene]-2-thioxo-4-thiazolidinone], the response vs control in vivo at 50 mg/kg reads like this: under setting [1], 84 ± 7%; under setting [2], 71 ± 8%.

As to `COc1cc(C(C)=C2SC(=S)NC2=O)cc(OC)c1OC` [Example 19, 5-[(3,4,5-trimethoxyphenyl)methylmethylene]-2-thioxo-4-thiazolidinone], the “Percent of Initial Blood Glucose Level After 2 hrs.” value under setting [3] stood at 85 ± 14%. For the same compound, the “Percent of Initial Blood Glucose Level After 4 hrs.” value under setting [4] came out at 75 ± 4%.

As for `COc1cc(C=C2SC(=S)NC2=O)ccc1O` [Example 20, 5-[(3-methoxy-4-hydroxyphenyl)methylene]-2-thioxo-4-thiazolidinone], the response vs control in vivo at 50 mg/kg under setting [1] was 76 ± 3% and the response vs control in vivo at 50 mg/kg under setting [2] was found to be 70 ± 5%.

Consider `O=C1NC(=S)SC1=Cc1cccc(Cl)c1` [Example 23, 5-[(3-chlorophenyl)methylene]-2-thioxo-4-thiazolidinone], for which the response vs control in vivo at 50 mg/kg was determined as 74 ± 6% under setting [1] and 90 ± 6% under setting [2].

Consider `COc1ccc(C=C2SC(=S)NC2=O)cc1C` [Example 27, 5-[(3-methyl-4-methoxyphenyl)methylene]-2-thioxo-4-thiazolidinone], for which the response vs control in vivo at 50 mg/kg worked out at 93 ± 3% under setting [1] and 84 ± 6% under setting [2].

For `O=C1NC(=S)SC1=Cc1ccccc1-c1ccccc1` [Example 29, 5-[[(1,1'-biphenyl)-2-yl]methylene]-2-thioxo-4-thiazolidinone], the response vs control in vivo at 50 mg/kg came out at 84 ± 5% under setting [1] and 77 ± 6% under setting [2].

With `C=CCN1C(=O)C(=Cc2ccc(O)c(OC)c2)SC1=S` [Example 30, 5-[(3-methoxy-4-hydroxyphenyl)methylene]-3-(2-propenyl)-2-thioxo-4-thiazolidinone], the response vs control in vivo at 50 mg/kg came to 78 ± 7% under setting [1] and 81 ± 5% under setting [2].

Consider `Cc1cccc(C=C2SC(=S)NC2=O)c1` [Example 33, 5-[(3-methylphenyl)methylene]-2-thioxo-4-thiazolidinone], for which the response vs control in vivo at 50 mg/kg turned out to be 91 ± 6% under setting [1] and 86 ± 7% under setting [2].

As for `O=C1NC(=S)SC1=Cc1ccc(Cl)c(Cl)c1` [Example 36, 5-[(3,4-dichlorophenyl)methylene]-2-thioxo-4-thiazolidinone], the response vs control in vivo at 50 mg/kg by setting is: under setting [1], 81 ± 7%; under setting [2], 90 ± 8%.

`O=C1NC(=S)SC1=Cc1ccc(C(=O)O)cc1` [Example 37, 4-[(2-thioxo-4-thiazolidinone)methylene]benzoic acid]: the response vs control in vivo at 50 mg/kg under setting [1] was found to be 89 ± 4% and the response vs control in vivo at 50 mg/kg under setting [2] came out at 80 ± 4%.

As to `O=C1NC(=S)SC1=Cc1c[nH]c2ccccc12` [Example 39, 5-[(1H-indol-3-yl)methylene]-2-thioxo-4-thiazolidinone], the response vs control in vivo at 50 mg/kg under setting [1] was found to be 83 ± 4% and the response vs control in vivo at 50 mg/kg under setting [2] was determined as 76 ± 4%.

`COc1ccc(C=C2SC(=S)NC2=O)cc1O` [Example 40, 5-[(3-hydroxy-4-methoxyphenyl)methylene]-2-thioxo-4-thiazolidinone]: the response vs control in vivo at 50 mg/kg came out at 78 ± 5% under setting [1] and 72 ± 4% under setting [2].

Take `O=C1NC(=S)SC1=Cc1ccc([N+](=O)[O-])c(O)c1` [Example 43, 5-[(3-hydroxy-4-nitrophenyl)methylene]-2-thioxo-4-thiazolidinone]: the response vs control in vivo at 50 mg/kg is 92 ± 7% under setting [1] and 88 ± 4% under setting [2].

Consider `CC(=C1SC(=S)NC1=O)c1cccc(O)c1` [Example 44, 5-[(3-hydroxyphenyl)methylmethylene]-2-thioxo-4-thiazolidinone], for which the “Percent of Initial Blood Glucose Level After 2 hrs.” value under setting [3] stood at 98 ± 4%. Moreover, the “Percent of Initial Blood Glucose Level After 4 hrs.” value under setting [4] is 88 ± 5%.

`CCOc1ccc(C=C2SC(=S)NC2=O)cc1O` [Example 46, 5-[(3-hydroxy-4-ethoxyphenyl)methylene]-2-thioxo-4-thiazolidinone]: the response vs control in vivo at 50 mg/kg is, setting by setting: under setting [1], 79 ± 4%; under setting [2], 77 ± 5%.

Regarding `CCCOc1ccc(C=C2SC(=S)NC2=O)cc1OCCC` [Example 51, 5-[(3,4-dipropoxyphenyl)methylene]-2-thioxo-4-thiazolidinone], the response vs control in vivo at 50 mg/kg was 89 ± 7% under setting [1] and 85 ± 8% under setting [2].

Consider `CCCCOc1ccc(C=C2SC(=S)NC2=O)cc1OC` [Example 52, 5-[(3-methoxy-4-butoxyphenyl)methylene]-2-thioxo-4-thiazolidinone, sodium salt], for which the response vs control in vivo at 50 mg/kg (4 h, read-out: Percent of Initial Blood Glucose Level After 4 hrs., 50 mg/kg, intraperitoneal, 4 hrs) is 61 ± 4%.

For the compound `CC(C)(C)c1cc(C=C2SC(=S)N(CC(=O)O)C2=O)cc(C(C)(C)C)c1O` [Example 53, 5-[[3,5-bis(1,1-dimethylethyl)-4-hydroxyphenyl]methylene]-4-oxo-2-thioxo-3-thiazolidine acetic acid], the “ability to lower blood glucose levels in mammals” value was “surprising ability to lower blood glucose levels in mammals”. The response vs control in vivo at 50 mg/kg under setting [1] came out at 73 ± 4%. Further, the response vs control in vivo at 100 mg/kg (2 h, intraperitoneal, 2 hrs, read-out: Percent of Initial Blood Glucose Level After 2 hrs.) is 83 ± 9%. Moreover, under setting [2], the response vs control in vivo at 50 mg/kg is 55 ± 5%. For the same compound, the response vs control in vivo at 100 mg/kg (4 h, intraperitoneal, 4 hrs, read-out: Percent of Initial Blood Glucose Level After 4 hrs.) stood at 80 ± 14%.

Regarding `CCCCOc1ccc(CC2SC(=S)NC2=O)cc1OC` (stereo not drawn) [Example 54, 5-[(3-methoxy-4-butoxyphenyl)methyl]-2-thioxo-4-thiazolidinone], the response vs control in vivo at 50 mg/kg under setting [1] turned out to be 76 ± 7% and the response vs control in vivo at 50 mg/kg under setting [2] turned out to be 74 ± 6%.

With `CCC(C)c1cc(C=C2SC(=S)N(CC(=O)O)C2=O)cc(C(C)CC)c1O` (stereo not drawn) [Example 59, 5-[[3,5-bis(1-methylpropyl)-4-hydroxyphenyl]methylene]-4-oxo-2-thioxo-3-thiazolidine acetic acid], the “ability to lower blood glucose levels in mammals” value is given as “surprising ability to lower blood glucose levels in mammals”. Besides, the response vs control in vivo at 50 mg/kg under setting [1] is 62 ± 5%. Besides, under setting [2], the response vs control in vivo at 50 mg/kg was found to be 59 ± 9%.

Values taken from patent US5523314A, “Compounds useful as hypoglycemic agents and for treating Alzheimer's disease” (priority 1994, dated 1996).
